Reference: patent publication US12139492B2 (Endotarget Inc., priority 2021, dated 2024)
Where two headings read alike, the source gives them in different places.

Tests used:
[1] = test system: Mino cells; assay: Antiproliferative effect, MTS cell viability assay, Mino cells; format: cell-based; conditions: Homo sapiens, MINO, Mino mantle cell lymphoma cells; read-out: IC50 (anti-proliferation) Mino cells
Description: (§1) Antiproliferative effect of the exemplary compounds was assessed in B-cell malignancy models.
(§2) To assess the effect of the exemplary compounds on cell viability in B-cell malignancy models by degradation of BTK protein, Mino and JeKo-1 cells were treated with varying concentrations of Ibrutinib (0, 0.001, 0.01, 0.1, 1, 10 μM). Under these conditions, cell viability was determined by an MTS assay. Cytotoxicity was assayed by the determination of reduced tetrazolium (formazan) created by metabolically active cells as detected at 490 nm absorbance using a microplate reader (BMG Labtech, Cary, NC, USA).
(§3) The exemplary compounds attenuated the viability of Mino and JeKo-1 cells in a concentration-dependent manner at 72 h post treatment. Results are shown in Table 1 for each exemplary compound.

[2] = test system: JeKo-1 cells; assay: Antiproliferative effect, MTS cell viability assay, JeKo-1 cells; format: cell-based; conditions: Homo sapiens; JeKo-1 mantle cell lymphoma cells; read-out: IC50 (anti-proliferation) JeKO-1 cells
Description: as §1, §2, §3

[3] = molecular target: BTK (Homo sapiens, UniProt Q06187); assay: Degradation of BTK protein in Namalwa cells (Western blot; DC50, Dmax); conditions: for DC50: cell line not given
[4] = read-out: DC50 (BTK degradation), concentration giving 50% reduction of BTK expression level
[5] = read-out: Dmax (BTK degradation)

Sequence of BTK (Q06187 whole entry): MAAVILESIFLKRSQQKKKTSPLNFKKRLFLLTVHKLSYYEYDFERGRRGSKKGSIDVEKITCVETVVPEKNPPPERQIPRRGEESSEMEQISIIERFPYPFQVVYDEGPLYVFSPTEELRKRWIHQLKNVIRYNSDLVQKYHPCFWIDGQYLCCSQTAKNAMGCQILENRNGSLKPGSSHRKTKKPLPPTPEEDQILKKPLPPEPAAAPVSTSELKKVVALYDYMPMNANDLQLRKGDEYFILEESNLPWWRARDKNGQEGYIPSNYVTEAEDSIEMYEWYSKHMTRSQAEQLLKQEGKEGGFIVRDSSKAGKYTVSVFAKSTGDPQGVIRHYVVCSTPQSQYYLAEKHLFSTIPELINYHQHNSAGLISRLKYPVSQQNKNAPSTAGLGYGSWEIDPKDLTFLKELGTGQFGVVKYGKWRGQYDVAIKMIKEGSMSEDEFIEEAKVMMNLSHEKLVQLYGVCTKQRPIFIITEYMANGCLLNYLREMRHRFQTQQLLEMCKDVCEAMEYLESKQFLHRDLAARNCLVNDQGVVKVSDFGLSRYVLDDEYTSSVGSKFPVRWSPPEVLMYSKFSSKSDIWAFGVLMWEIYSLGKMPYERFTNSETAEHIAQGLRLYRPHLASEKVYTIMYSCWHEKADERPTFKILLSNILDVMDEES

Row | DC50 [3, 4] [nM] | Dmax [3, 5] [%] | Dmax [3] [%] | DC50 ([3]; BTK degradation) [nM] | degradation of BTK protein ([3]; Namalwa B lymphocyte cells, various concentrations, 24 hours, Western blot) | SMILES | IC50 [1] [nM] | IC50 [2] [nM]
1 |  |  | > 90 | < 10 |  | NC(=O)c1c(-c2ccc(Oc3ccccc3)cc2)nn2c1NCCC2C1CCN(C2CCN(C(=O)N3CCC(N4CCN(c5ccc6c(c5)CN(C5CCC(=O)NC5=O)C6=O)CC4)CC3)CC2)CC1 (centres unmarked) [Compound 342, 7-(1′-(4-(4-(2-(2,6-dioxopiperidin-3-yl)-1-oxoisoindolin-5-yl)piperazin-1-yl)piperidine-1-carbonyl)-[1,4′-bipiperidin]-4-yl)-2-(4-phenoxyphenyl)-4,5,6,7-tetrahydropyrazolo[1,5-a]pyrimidine-3-carboxamide] | < 1000 | < 1000
2 |  |  | > 90 | 10 to 50 |  | NC(=O)c1c(-c2ccc(Oc3ccccc3)cc2)nn2c1NCCC2C1CCN(CC2CCN(C(=O)N3CCC(N4CCN(c5ccc6c(c5)C(=O)N(C5CCC(=O)NC5=O)C6=O)CC4)CC3)CC2)CC1 (centres unmarked) [Compound 363, 7-(1-((1-(4-(4-(2-(2,6-dioxopiperidin-3-yl)-1,3-dioxoisoindolin-5-yl)piperazin-1-yl)piperidine-1-carbonyl)piperidin-4-yl)methyl)piperidin-4-yl)-2-(4-phenoxyphenyl)-4,5,6,7-tetrahydropyrazolo[1,5-a]pyrimidine-3-carboxamide] | < 1000 | 1000 to 10000
3 |  |  | > 90 | 10 to 50 |  | NC(=O)c1c(-c2ccc(Oc3ccccc3)cc2)nn2c1NCC[C@H]2C1CCN(CCOCCOCCN2CCN(c3ccc4c(c3)C(=O)N(C3CCC(=O)NC3=O)C4=O)CC2)CC1 (stereo partly drawn) [Compound 271, (7S)-7-(1-(2-(2-(2-(4-(2-(2,6-dioxopiperidin-3-yl)-1,3-dioxoisoindolin-5-yl)piperazin-1-yl)ethoxy)ethoxy)ethyl)piperidin-4-yl)-2-(4-phenoxyphenyl)-4,5,6,7-tetrahydropyrazolo[1,5-a]pyrimidine-3-carboxamide] | 1000 to 10000 | > 10000
4 | 10 to 50 | > 90 |  |  |  | Nc1ncnc2c1c(-c1ccc(Oc3ccccc3)cc1)nn2C1CCN(CCN2CCN(CCSc3ccc4c(c3)C(=O)N(C3CCC(=O)NC3=O)C4=O)CC2)CC1 (centres unmarked) [Compound 465, 5-((2-(4-(2-(4-(4-amino-3-(4-phenoxyphenyl)-1H-pyrazolo(3,4-d)pyrimidin-1-yl)piperidin-1-yl)ethyl)piperazin-1-yl)ethyl)thio)-2-(2,6-dioxopiperidin-3-yl)isoindoline-1,3-dione] | 1000 to 10000 | 1000 to 10000
5 |  |  | > 90 | < 10 |  | Nc1ncnc2c1c(-c1ccc(Oc3ccccc3)cc1)nn2C1CCN(C2CCN(C(=O)N3CCC(CCC4CCN(c5ccc6c(c5)CN(C5CCC(=O)NC5=O)C6=O)CC4)CC3)CC2)CC1 (centres unmarked) [Compound 256, 3-(5-(4-(2-(1-(4-(4-amino-3-(4-phenoxyphenyl)-1H-pyrazolo[3,4-d]pyrimidin-1-yl)-[1,4′-bipiperidine]-1′-carbonyl)piperidin-4-yl)ethyl)piperidin-1-yl)-1-oxoisoindolin-2-yl)piperidine-2,6-dione] | < 1000 | 1000 to 10000
6 |  |  | > 75 | 10 to 50 |  | NC(=O)c1c(-c2ccc(Oc3ccccc3)cc2)nn2c1NCCC2C1CCN(C(=O)N2CCN(CCC3CCN(c4ccc5c(c4)CN(C4CCC(=O)NC4=O)C5=O)CC3)CC2)CC1 (centres unmarked) [Compound 284, 7-(1-(4-(2-(1-(2-(2,6-dioxopiperidin-3-yl)-1-oxoisoindolin-5-yl)piperidin-4-yl)ethyl)piperazine-1-carbonyl)piperidin-4-yl)-2-(4-phenoxyphenyl)-4,5,6,7-tetrahydropyrazolo[1,5-a]pyrimidine-3-carboxamide] | 1000 to 10000 | 1000 to 10000
7 |  |  | > 75 | 10 to 50 |  | NC(=O)c1c(-c2ccc(Oc3ccccc3)cc2)nn2c1NCCC2C1CCN(C(=O)N2CCN(CCN3CCC(c4ccc5c(c4)CN(C4CCC(=O)NC4=O)C5=O)CC3)CC2)CC1 (centres unmarked) [Compound 288, 7-(1-(4-(2-(4-(2-(2,6-dioxopiperidin-3-yl)-1-oxoisoindolin-5-yl)piperidin-1-yl)ethyl)piperazine-1-carbonyl)piperidin-4-yl)-2-(4-phenoxyphenyl)-4,5,6,7-tetrahydropyrazolo[1,5-a]pyrimidine-3-carboxamide] | 1000 to 10000 | 1000 to 10000
8 |  |  | > 75 | > 50 |  | NC(=O)c1c(-c2ccc(Oc3ccccc3)cc2)nn2c1NCCC2C1CCN(C2CCN(CCN3CCC(c4ccc5c(c4)C(=O)N(C4CCC(=O)NC4=O)C5=O)CC3)CC2)CC1 (centres unmarked) [Compound 311, 7-(1′-(2-(4-(2-(2,6-dioxopiperidin-3-yl)-1,3-dioxoisoindolin-5-yl)piperidin-1-yl)ethyl)-[1,4′-bipiperidin]-4-yl)-2-(4-phenoxyphenyl)-4,5,6,7-tetrahydropyrazolo[1,5-a]pyrimidine-3-carboxamide] | > 10000 | > 10000

The remaining lines, values behind:

Row | SMILES | DC50 [3, 4] [nM] | Dmax [3, 5] [%] | Dmax [3] [%] | DC50 ([3]; BTK degradation) [nM] | degradation of BTK protein ([3]; Namalwa B lymphocyte cells, various concentrations, 24 hours, Western blot) | IC50 [1] [nM] | IC50 [2] [nM]
9 | Nc1ncnc2c1c(-c1ccc(Oc3ccccc3)cc1)nn2C1CCN(C(=O)C2CN(C3CCN(c4ccc5c(c4)C(=O)N(C4CCC(=O)NC4=O)C5=O)CC3)C2)CC1 (centres unmarked) [Compound 509, 5-(4-(3-(4-(4-amino-3-(4-phenoxyphenyl)-1H-pyrazolo[3,4-d]pyrimidin-1-yl)piperidine-1-carbonyl)azetidin-1-yl)piperidin-1-yl)-2-(2,6-dioxopiperidin-3-yl)isoindoline-1,3-dione] | < 10 | > 90 |  |  |  | < 1000 | < 1000
10 | Nc1ncnc2c1c(-c1ccc(Oc3ccccc3)cc1)nn2C1CCN(CCN2CCC(CC3CCN(c4ccc(NC5CCC(=O)NC5=O)cc4)CC3)CC2)CC1 (centres unmarked) [Compound 559, 3-((4-(4-((1-(2-(4-(4-amino-3-(4-phenoxyphenyl)-1H-pyrazolo[3,4-d]pyrimidin-1-yl)piperidin-1-yl)ethyl)piperidin-4-yl)methyl)piperidin-1-yl)phenyl)amino)piperidine-2,6-dione] | < 10 | > 90 |  |  |  | < 1000 | < 1000
11 | Nc1ncnc2c1c(-c1ccc(Oc3ccccc3)cc1)nn2C1CCN(CC2CN(CC3CCN(c4ccc5c(c4)C(=O)N(C4CCC(=O)NC4=O)C5=O)C3)C2)CC1 (centres unmarked) [Compound 443, 5-(3-((3-((4-(4-amino-3-(4-phenoxyphenyl)-1H-pyrazolo(3,4-d)pyrimidin-1-yl)piperidin-1-yl)methyl)azetidin-1-yl)methyl)pyrrolidin-1-yl)-2-(2,6-dioxopiperidin-3-yl)isoindoline-1,3-dione] | < 10 | > 90 |  |  | dose-dependent degradation | < 1000 | < 1000
12 | Nc1ncnc2c1c(-c1ccc(Oc3ccccc3)cc1)nn2C1CCN(CC2CCN(CCN3CCN(c4ccc5c(c4)CN(C4CCC(=O)NC4=O)C5=O)CC3)CC2)CC1 (centres unmarked) [Compound 204, 3-(5-(4-(2-(4-((4-(4-amino-3-(4-phenoxyphenyl)-1H-pyrazolo[3,4-d]pyrimidin-1-yl)piperidin-1-yl)methyl)piperidin-1-yl)ethyl)piperazin-1-yl)-1-oxoisoindolin-2-yl)piperidine-2,6-dione] |  |  | > 90 | 10 to 50 |  | < 1000 | 1000 to 10000
13 | NC(=O)c1c(-c2ccc(Oc3ccccc3)cc2)nn2c1NCCC2C1CCN(CC2CCN(C(=O)N3CCC(CN4CCN(c5ccc6c(c5)C(=O)N(C5CCC(=O)NC5=O)C6=O)CC4)CC3)CC2)CC1 (centres unmarked) [Compound 369, 7-(1-((1-(4-((4-(2-(2,6-dioxopiperidin-3-yl)-1,3-dioxoisoindolin-5-yl)piperazin-1-yl)methyl)piperidine-1-carbonyl)piperidin-4-yl)methyl)piperidin-4-yl)-2-(4-phenoxyphenyl)-4,5,6,7-tetrahydropyrazolo[1,5-a]pyrimidine-3-carboxamide] |  |  | > 90 | < 10 |  | < 1000 | 1000 to 10000
14 | NC(=O)c1c(-c2ccc(Oc3ccccc3)cc2)nn2c1NCCC2C1CCN(CC2CCN(C(=O)N3CCC(CN4CCN(c5ccc6c(c5)CN(C5CCC(=O)NC5=O)C6=O)CC4)CC3)CC2)CC1 (centres unmarked) [Compound 370, 7-(1-((1-(4-((4-(2-(2,6-dioxopiperidin-3-yl)-1-oxoisoindolin-5-yl)piperazin-1-yl)methyl)piperidine-1-carbonyl)piperidin-4-yl)methyl)piperidin-4-yl)-2-(4-phenoxyphenyl)-4,5,6,7-tetrahydropyrazolo[1,5-a]pyrimidine-3-carboxamide] |  |  | > 90 | < 10 |  | < 1000 | < 1000
15 | Nc1ncnc2c1c(-c1ccc(Oc3ccccc3)cc1)nn2C1CCN(C2CCN(CCCN3CCC(c4ccc5c(c4)C(=O)N(C4CCC(=O)NC4=O)C5=O)CC3)CC2)CC1 (centres unmarked) [Compound 223, 5-(1-(3-(4-(4-amino-3-(4-phenoxyphenyl)-1H-pyrazolo[3,4-d]pyrimidin-1-yl)-[1,4′-bipiperidin]-1′-yl)propyl)piperidin-4-yl)-2-(2,6-dioxopiperidin-3-yl)isoindoline-1,3-dione] |  |  | > 75 | 10 to 50 |  | 1000 to 10000 | 1000 to 10000
16 | Nc1ncnc2c1c(-c1ccc(Oc3ccccc3)cc1)nn2C1CCN(C2CCN(CC3CCN(c4ccc5c(c4)C(=O)N([C@@H]4CCC(=O)NC4=O)C5=O)CC3)CC2)CC1 [Compound 213a, (R)-5-(4-((4-(4-amino-3-(4-phenoxyphenyl)-1H-pyrazolo[3,4-d]pyrimidin-1-yl)[1,4′-bipiperidin]-1′-yl)methyl)piperidin-1-yl)-2-(2,6-dioxopiperidin-3-yl)isoindoline-1,3-dione] |  |  | > 90 | < 10 |  | < 1000 | < 1000
